Laboratory results reported in US7148230B2, “Quinazoline derivatives” (AstraZeneca AB, priority 2003, dated 2006).

Columns and labels:
EGFR tyrosine kinase = target: T1, EGFR tyrosine kinase (Homo sapiens, UniProt P00533); test: Protein tyrosine kinase phosphorylation assay, Test (a), EGFR; assay type: biochemical; conditions: ATP at Km concentration; read-out: IC50 (nM) Test (a) (Inhibition of EGFR tyrosine kinase protein phosphorylation)
T1 construct: Recombinant intracellular fragments of EGFR, erbB2 and erbB4; made in house; host or cells: baculovirus/Sf21 insect cells (cleared lysate used)
T1 sequence (P00533 669-1210 limits assumed): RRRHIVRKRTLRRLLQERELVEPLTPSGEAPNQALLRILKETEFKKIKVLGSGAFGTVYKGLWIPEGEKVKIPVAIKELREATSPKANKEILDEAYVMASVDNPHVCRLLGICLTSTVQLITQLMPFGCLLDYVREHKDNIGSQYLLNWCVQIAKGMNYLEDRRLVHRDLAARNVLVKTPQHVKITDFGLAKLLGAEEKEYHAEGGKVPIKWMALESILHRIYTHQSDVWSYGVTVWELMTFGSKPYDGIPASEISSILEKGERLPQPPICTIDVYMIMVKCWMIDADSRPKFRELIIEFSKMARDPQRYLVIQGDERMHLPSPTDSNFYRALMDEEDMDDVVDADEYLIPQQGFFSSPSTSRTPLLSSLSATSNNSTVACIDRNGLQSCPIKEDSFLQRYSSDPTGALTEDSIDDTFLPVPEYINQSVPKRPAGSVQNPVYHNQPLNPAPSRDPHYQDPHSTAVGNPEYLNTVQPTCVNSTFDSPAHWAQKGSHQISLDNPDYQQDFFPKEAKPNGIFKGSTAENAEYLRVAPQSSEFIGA
Description: (§1) This test measures the ability of a test compound to inhibit the phosphorylation of a tyrosine containing polypeptide substrate by an erbB tyrosine kinase enzyme.
(§2) Recombinant intracellular fragments of EGFR, erbB2 and erbB4 (accession numbers X00588, X03363 and L07868 respectively) were cloned and expressed in the baculovirus/Sf21 system. Lysates were prepared from these cells by treatment with ice-cold lysis buffer (20 mM N-2-hydroxyethylpiperizine-N′-2-ethanesulfonic acid (HEPES) pH7.5, 150 mM NaCl, 10% glycerol, 1% Triton X-100, 1.5 mM MgCl2, 1 mM ethylene glycol-bis(β-aminoethyl ether) N′,N′,N′,N′-tetraacetic acid (EGTA), plus protease inhibitors and then cleared by centrifugation.
(§3) Constitutive kinase activity of the recombinant protein was determined by its ability to phosphorylate a synthetic peptide (made up of a random co-polymer of Glutamic Acid, Alanine and Tyrosine in the ratio of 6:3:1). […]
(§4) The immobilised phospho-peptide product of the reaction was detected by immunological methods. […] After further washing, HRP activity in each well of the plate was measured colorimetrically using 22′-Azino-di-[3-ethylbenzthiazoline sulfonate (6)]diammonium salt crystals (ABTS™ from Roche) as a substrate.
(§5) Quantification of colour development and thus enzyme activity was achieved by the measurement of absorbance at 405 nm on a Molecular Devices ThermoMax microplate reader. […]

erbB2 tyrosine kinase = target: T2, erbB2 tyrosine kinase (Homo sapiens, UniProt P04626); test: Protein tyrosine kinase phosphorylation assay, Test (a), erbB2; assay type: biochemical; conditions: ATP at Km concentration; read-out: IC50 (nM) Test (a) (Inhibition of erbB2 tyrosine kinase protein phosphorylation)
T2 construct: Recombinant intracellular fragments of EGFR, erbB2 and erbB4; made in house; host or cells: baculovirus/Sf21 insect cells (cleared lysate used)
T2 sequence (P04626 676-1255 limits assumed): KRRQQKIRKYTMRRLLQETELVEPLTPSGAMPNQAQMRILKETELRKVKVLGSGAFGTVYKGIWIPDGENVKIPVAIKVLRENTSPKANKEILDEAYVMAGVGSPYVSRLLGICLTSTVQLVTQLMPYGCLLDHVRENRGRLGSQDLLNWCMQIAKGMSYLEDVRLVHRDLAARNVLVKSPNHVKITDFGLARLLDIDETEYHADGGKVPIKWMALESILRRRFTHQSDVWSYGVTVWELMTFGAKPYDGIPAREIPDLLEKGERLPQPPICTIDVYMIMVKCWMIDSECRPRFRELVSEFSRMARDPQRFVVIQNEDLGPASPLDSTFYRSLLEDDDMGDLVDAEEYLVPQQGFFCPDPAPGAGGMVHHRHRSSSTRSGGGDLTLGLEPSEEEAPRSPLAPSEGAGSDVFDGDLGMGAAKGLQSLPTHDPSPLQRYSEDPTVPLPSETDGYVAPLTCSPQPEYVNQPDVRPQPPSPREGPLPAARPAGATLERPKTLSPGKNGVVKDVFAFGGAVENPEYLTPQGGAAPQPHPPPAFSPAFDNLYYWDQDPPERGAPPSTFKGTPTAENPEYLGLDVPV
Description: as §1, §2, §3, §4, §5

IC50 (EGFR tyrosine kinase): 3 nM
melting point: 195.5 to 196.5 °C
IC50 (erbB2 tyrosine kinase): 59 nM
Compound: COc1cc2ncnc(Nc3cccc(Cl)c3F)c2cc1OC1CCN(C(=O)CO)CC1 [Example 1, 4-(3-chloro-2-fluoroanilino)-6-[1-(hydroxyacetyl)piperidin-4-yloxy]-7-methoxyquinazoline]
